Data: patent US9975849B1, “Gossypol l-arginine schiff base compound with antitumor activities and a method of preparing the same” (SHAANXI PANLONG PHARMACEUTICAL GROUP LIMITED BY SHARE LTD., priority 2017, dated 2018)
Where two headings read alike, the source gives them in different places.

What was measured:
Assay type in all cases: cell-based
[1] = system: human hepatoma cells (HepG2); assay: MTT tumor cell proliferation inhibition test, HepG2; conditions: for IC50: Homo sapiens, read-out: Half Inhibitory Concentration IC50 HepG2
Description: (§1) The compounds of the present invention were subjected to tumor cell proliferation inhibition test, and conventional MTT method was used.
(§2) Cell lines: human hepatoma cells (HepG2), human lung cancer cells (A-549), human gastric cancer cells (SGC-7901). The culture medium was DMEM+15% NBS+double antibody.
(§3) Sample solution preparation: after dissolving with DMSO (Merck), PBS (-) was added to obtain 100 μmol/L solution or homogeneous suspension. The solution was diluted with PBS (-) in DMSO to a final concentration of 0.1, 1, 10, 20, 40, 60, 80, 100 μmol/L.
(§4) Anti-uterine fibroids drug gossypol was used as control solution, prepared under the same condition.
(§5) Cell culture: adherent growth Tumor cells were cultured in 1640 medium containing 10% inactivated neonatal bovine serum and penicillin, streptomycin (1 million U/L), placed in carbon dioxide incubator at 37° C., 5% CO2, and saturated humidity. Cells were treated serially passaged 2-3 times. The first culture was washed with PBS 2 times, and digested with trypsin. Fresh culture medium was added evenly, cells were adjusted to a appropriate concentration and transferred into a new culture flask. […]
(§6) Experimental Principle: Living cells mitochondria in the dehydrogenase can reduce yellow MTT to water-insoluble blue-violet product MT (MTT formazan), deposited in the cells. […] DMSO can dissolve blue violet crystals, and the color depth is proportional to the amount contained, so the absorbance measured by the microplate reader can reflect the cell viability.
(§7) Methods: The exponential phase cells were digested and counted and seeded in 96-well plates at a density of 2×10^4/mL at 100 μl per well. […] After 48 hours, the supernatant was discarded, and 100 μl of MTT ((2-(4,5-dimethyl-2-thiazolyl)-3,5-diphenyl-2H-[…]) (1 mg/mL) was added to each well. After another 4 hours, the supernatant was discarded, and 100 μl of DMSO was added to each well. After mixing, the absorbance was measured at 570 nm using a microplate reader. An IC50 calculation software was used to determine the half inhibitory concentration (IC50).

[2] = system: human lung cancer cells (A-549); assay: MTT tumor cell proliferation inhibition test, A-549
Description: as §1, §2, §3, §4, §5, §6, §7

[3] = system: human gastric cancer cells (SGC-7901); assay: MTT tumor cell proliferation inhibition test, SGC-7901; conditions: for IC50: Homo sapiens, read-out: Half Inhibitory Concentration IC50 SGC-7901
Description: as §1, §2, §3, §4
Cell culture: adherent growth Tumor cells were cultured in 1640 medium containing 10% inactivated neonatal bovine serum and penicillin, streptomycin (1 million U/L), placed in carbon dioxide incubator at 37° C., 5% CO2, and saturated humidity. Cells were treated serially passaged 2-3 times. The first culture was washed with PBS 2 times, and digested with trypsin. Fresh culture medium was added evenly, cells were adjusted to a appropriate concentration and transferred into a new culture flask. Cell in an exponential phase were chosen for the tests.
MTT Assay for Cell Viability and IC50 Determination:
Experimental Principle: Living cells mitochondria in the dehydrogenase can reduce yellow MTT to water-insoluble blue-violet product MT (MTT formazan), deposited in the cells. The amount of production is proportional to the number of living cells. […] DMSO can dissolve blue violet crystals, and the color depth is proportional to the amount contained, so the absorbance measured by the microplate reader can reflect the cell viability.
Methods: The exponential phase cells were digested and counted and seeded in 96-well plates at a density of 2×10^4/mL at 100 μl per well. After 24 hours of incubation, the cells to be tested were treated with 0.1, 1, 10, 20, 40, 60, 80, 100 μmol/L of the compounds. Each experimental group had 5 wells in each concentration, and the culture medium containing 0.4% DMSO was used as control. After 48 hours, the supernatant was discarded, and 100 μl of MTT ((2-(4,5-dimethyl-2-thiazolyl)-3,5-diphenyl-2H-[…]) (1 mg/mL) was added to each well. After another 4 hours, the supernatant was discarded, and 100 μl of DMSO was added to each well. After mixing, the absorbance was measured at 570 nm using a microplate reader. An IC50 calculation software was used to determine the half inhibitory concentration (IC50).

IC50 ([1]; MTT, 48 hours treatment, HepG2)	IC50 ([2]; Homo sapiens, MTT, 48 hours treatment, A549, read-out: Half Inhibitory Concentration IC50 A549)	IC50 ([3]; MTT, 48 hours treatment, SGC-7901)	Structure (SMILES)	antitumor activities (in words) ([1]; HepG2, one of the three cell lines tested)	antitumor activities (in words) ([2]; A549, one of the three cell lines tested)	antitumor activities compared with gossypol ([2]; against A549)	antitumor activities (in words) ([3]; SGC-7901, one of the three cell lines tested)	antitumor activities compared with gossypol ([3]; against SCG-7901)	IC50 ([1]; HepG2, 48 h)	IC50 ([3]; SGC-7901, 48 h)
11.7 ± 0.32 µM	12.3 ± 0.69 µM	9.37 ± 0.36 µM	Cc1cc2c(C(C)C)c(O)c(O)c(/C=N\C(=N)NCCC[C@H](N)C(=O)O)c2c(O)c1-c1c(C)cc2c(C(C)C)c(O)c(O)c(/C=N/C(=N)NCCC[C@H](N)C(=O)O)c2c1O [Gossypol L-arginine Schiff base compound, gossypol L-arginine Schiff base compound]	excellent antitumor activities	excellent antitumor activities	better antitumor activities than gossypol	excellent antitumor activities	better antitumor activities than gossypol		
			Cc1cc2c(C(C)C)c(O)c(O)c(C=O)c2c(O)c1-c1c(C)cc2c(C(C)C)c(O)c(O)c(C=O)c2c1O [Gossypol, gossypol]						8.29 ± 0.28 µM	18.2 ± 0.37 µM
